Counter-ions that a name gives are not always drawn.

The values that follow come from patent publication US11524963B2, “Substituted pyrazolo[3,4-d]pyrimidines as RET kinase inhibitors” (Array Biopharma Inc., priority 2018, dated 2022).

What all share (assay type): biochemical
The target of one test is RET kinase G810S (Homo sapiens, UniProt P07949, G810S). In words: RET Enzyme Assay (HTRF KinEASE-TK), G810S.
In another test the target is RET kinase Wild Type (Homo sapiens, UniProt P07949). In words: RET Enzyme Assay (HTRF KinEASE-TK), Wild Type.
Sequence of RET kinase Wild Type (P07949 29-1114): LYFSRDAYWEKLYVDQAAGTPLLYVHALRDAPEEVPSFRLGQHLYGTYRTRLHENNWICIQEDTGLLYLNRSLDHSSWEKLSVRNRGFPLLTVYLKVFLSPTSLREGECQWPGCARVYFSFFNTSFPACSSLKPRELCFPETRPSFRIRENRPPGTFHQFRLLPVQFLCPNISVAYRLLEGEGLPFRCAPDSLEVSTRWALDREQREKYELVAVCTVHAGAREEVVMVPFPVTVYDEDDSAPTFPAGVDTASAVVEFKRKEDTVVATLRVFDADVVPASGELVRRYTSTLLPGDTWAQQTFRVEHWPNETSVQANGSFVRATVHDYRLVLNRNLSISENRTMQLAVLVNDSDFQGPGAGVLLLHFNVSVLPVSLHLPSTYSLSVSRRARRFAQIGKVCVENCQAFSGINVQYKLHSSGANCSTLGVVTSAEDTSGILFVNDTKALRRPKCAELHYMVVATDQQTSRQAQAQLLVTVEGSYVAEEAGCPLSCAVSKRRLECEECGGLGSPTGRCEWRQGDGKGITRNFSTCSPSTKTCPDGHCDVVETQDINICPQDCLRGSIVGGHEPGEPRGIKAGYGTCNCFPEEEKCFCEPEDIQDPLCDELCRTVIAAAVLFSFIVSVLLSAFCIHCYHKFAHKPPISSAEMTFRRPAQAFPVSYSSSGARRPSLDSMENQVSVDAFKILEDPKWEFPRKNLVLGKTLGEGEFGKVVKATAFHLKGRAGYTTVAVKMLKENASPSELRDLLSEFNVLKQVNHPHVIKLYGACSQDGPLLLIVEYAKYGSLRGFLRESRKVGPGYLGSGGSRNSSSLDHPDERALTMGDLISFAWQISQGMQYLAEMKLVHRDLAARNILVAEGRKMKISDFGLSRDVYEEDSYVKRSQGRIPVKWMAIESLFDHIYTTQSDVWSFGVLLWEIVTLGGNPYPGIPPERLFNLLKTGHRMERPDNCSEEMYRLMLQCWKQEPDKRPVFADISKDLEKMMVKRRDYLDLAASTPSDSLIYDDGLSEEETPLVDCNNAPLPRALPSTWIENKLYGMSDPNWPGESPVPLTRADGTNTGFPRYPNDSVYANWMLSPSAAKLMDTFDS
The target of a further test is RET kinase G810R (Homo sapiens, UniProt P07949, G810R). In words: RET Enzyme Assay (HTRF KinEASE-TK), G810R. Background: In TR-FRET formats the signal depends on donor and acceptor labels being close together.
Sequence of RET kinase G810R (P07949 29-1114 G810R): as the sequence (P07949 29-1114) above, with G782R counted along it
The next test concerns the target RET kinase M918T (Homo sapiens, UniProt P07949, M918T). In words: RET Enzyme Assay (HTRF KinEASE-TK), M918T.
The next test has as its target RET kinase V804M (Homo sapiens, UniProt P07949, V804M). Description: RET Enzyme Assay (HTRF KinEASE-TK), V804M.

Sequence of RET kinase M918T (P07949 29-1114 M918T): as the sequence (P07949 29-1114) above, with M890T counted along it
Sequence of RET kinase V804M (P07949 29-1114 V804M): as the sequence (P07949 29-1114) above, with V776M counted along it
Sequence of RET kinase G810S (P07949 29-1114 G810S): as the sequence (P07949 29-1114) above, with G782S counted along it

A word on the IC50: it is the concentration that gives 50% inhibition. Low readings indicate inhibition by little substance, high ones a need for much substance. As for `CC(C)n1nc(C2CC2)cc1-c1nn(C(C)C)c2ncnc(N)c12` [Example 27, 3-(3-cyclopropyl-1-isopropyl-1H-pyrazol-5-yl)-1-isopropyl-1H-pyrazolo[3,4-d]pyrimidin-4-amine], the IC50 against RET kinase G810S came to 406 nM; against RET kinase Wild Type it was 11.6 nM; at RET kinase G810R it was 42.9 nM; against RET kinase M918T it was 22.3 nM.

As to `C=Cc1cc(-c2nn(C(C)C)c3ncnc(N)c23)[nH]n1` [Example 30, 1-isopropyl-3-(3-vinyl-1H-pyrazol-5-yl)-1H-pyrazolo[3,4-d]pyrimidin-4-amine hydrochloride], half-maximal inhibition on RET kinase Wild Type (IC50) was put at 65.9 nM.

Consider `CC(C)n1nc(-c2noc(C3CC3)c2I)c2c(N)ncnc21` [Example 12, 3-(5-cyclopropyl-4-iodoisoxazol-3-yl)-1-isopropyl-1H-pyrazolo[3,4-d]pyrimidin-4-amine], for which the IC50 on RET kinase V804M amounted to 15.1 nM; against RET kinase G810S it was 24.3 nM; against RET kinase Wild Type it was 5.3 nM; on RET kinase G810R, 11.4 nM; on RET kinase M918T, 4.1 nM.

In the case of `CC(C)n1nc(-c2cc(C3CC3)nn2C2CCCCC2)c2c(N)ncnc21` [Example 26, 3-(1-cyclohexyl-3-cyclopropyl-1H-pyrazol-5-yl)-1-isopropyl-1H-pyrazolo[3,4-d]pyrimidin-4-amine], the IC50 came to 87.4 nM at RET kinase G810S, 8 nM against RET kinase Wild Type, 31.3 nM against RET kinase G810R and 14.2 nM against RET kinase M918T.

The molecule `CC(C)n1nc(-c2cc(C(F)(F)F)[nH]n2)c2c(N)ncnc21` [Example 31, 1-isopropyl-3-(5-(trifluoromethyl)-1H-pyrazol-3-yl)-1H-pyrazolo[3,4-d]pyrimidin-4-amine dihydrochloride] showed an IC50 at RET kinase Wild Type of 156 nM.

`CC(C)n1nc(-c2noc(C3CC3)c2-c2ccncc2)c2c(N)ncnc21` [Example 8, 3-(5-cyclopropyl-4-(pyridin-4-yl)isoxazol-3-yl)-1-isopropyl-1H-pyrazolo[3,4-d]pyrimidin-4-amine]: the half-maximal inhibitory concentration (IC50) on RET kinase V804M stood at 29 nM; at RET kinase G810S it was 20.6 nM; at RET kinase Wild Type it was 2.9 nM; at RET kinase G810R it was 3.9 nM; at RET kinase M918T it was 3.9 nM.

For the molecule `CC(C)n1nc(-c2noc(C3CC3)c2-c2cnn(C)c2)c2c(N)ncnc21` [Example 3, 3-(5-cyclopropyl-4-(1-methyl-1H-pyrazol-4-yl)isoxazol-3-yl)-1-isopropyl-1H-pyrazolo[3,4-d]pyrimidin-4-amine], the IC50 at RET kinase V804M is 52.5 nM; at RET kinase G810S, 46.6 nM; on RET kinase Wild Type, 7.1 nM; at RET kinase G810R, 12.5 nM; at RET kinase M918T, 12.2 nM.

Molecule `CC(C)n1nc(-n2cc(C3CC3)cn2)c2c(N)ncnc21` [Example 34, 3-(4-cyclopropyl-1H-pyrazol-1-yl)-1-isopropyl-1H-pyrazolo[3,4-d]pyrimidin-4-amine] showed an IC50 at RET kinase Wild Type of 37.3 nM.

In the case of `CC(C)n1nc(-c2cc(-c3ccccc3)nn2C2CCCCO2)c2c(N)ncnc21` (stereo not drawn) [Example 24, 1-isopropyl-3-(3-phenyl-1-(tetrahydro-2H-pyran-2-yl)-1H-pyrazol-5-yl)-1H-pyrazolo[3,4-d]pyrimidin-4-amine], the IC50 was found to be 54.3 nM against RET kinase G810S, 8.7 nM at RET kinase Wild Type, 55 nM at RET kinase G810R and 9.8 nM against RET kinase M918T.

At RET kinase Wild Type, `CC(C)n1nc(-c2cnn(C3CC3)c2)c2c(N)ncnc21` [Example 29, 3-(1-cyclopropyl-1H-pyrazol-4-yl)-1-isopropyl-1H-pyrazolo[3,4-d]pyrimidin-4-amine] showed an IC50 of 61.7 nM.

As for `CC(C)n1nc(-c2noc(C3CC3)c2C2=CCOCC2)c2c(N)ncnc21` [Example 4, 3-(5-cyclopropyl-4-(3,6-dihydro-2H-pyran-4-yl)isoxazol-3-yl)-1-isopropyl-1H-pyrazolo[3,4-d]pyrimidin-4-amine], the IC50 at RET kinase V804M was determined as 28.8 nM; at RET kinase G810S, 37.3 nM; against RET kinase Wild Type, 5.2 nM; against RET kinase G810R, 13.5 nM; against RET kinase M918T it was 7.6 nM.

For the molecule `Cc1cnn(C2CCCCO2)c1-c1nn(C(C)C)c2ncnc(N)c12` (stereo not drawn) [Example 28, 1-isopropyl-3-(4-methyl-1-(tetrahydro-2H-pyran-2-yl)-1H-pyrazol-5-yl)-1H-pyrazolo[3,4-d]pyrimidin-4-amine], the values for the IC50 at RET kinase V804M and on RET kinase Wild Type were 276 nM and 379 nM, respectively.

Turning to `CC(C)n1nc(-c2noc(C3CC3)c2-c2cccnc2)c2c(N)ncnc21` [Example 7, 3-(5-cyclopropyl-4-(pyridin-3-yl)isoxazol-3-yl)-1-isopropyl-1H-pyrazolo[3,4-d]pyrimidin-4-amine], the IC50 is 52.2 nM against RET kinase V804M; 38.9 nM against RET kinase G810S; 7.1 nM against RET kinase Wild Type; 8.4 nM against RET kinase G810R; 8.7 nM on RET kinase M918T.

As for `CC(=O)n1nc(-c2nn(C(C)C)c3ncnc(N)c23)cc1C` [Example 32, 1-(3-(4-amino-1-isopropyl-1H-pyrazolo[3,4-d]pyrimidin-3-yl)-5-methyl-1H-pyrazol-1-yl)ethan-1-one], at RET kinase Wild Type, half-maximal inhibition (IC50) required 44.7 nM.

`CC(C)n1nc(-c2nccn2C)c2c(N)ncnc21` [Example 33, 1-isopropyl-3-(1-methyl-1H-imidazol-2-yl)-1H-pyrazolo[3,4-d]pyrimidin-4-amine]: the IC50 against RET kinase Wild Type was 65.9 nM.

For `CC(C)c1cc(-c2nn(C(C)C)c3ncnc(N)c23)n(C2CCCCO2)n1` (stereo not drawn) [Example 20, 1-isopropyl-3-(3-isopropyl-1-(tetrahydro-2H-pyran-2-yl)-1H-pyrazol-5-yl)-1H-pyrazolo[3,4-d]pyrimidin-4-amine], the IC50 against RET kinase G810S is 226 nM; on RET kinase Wild Type it was 21.1 nM; on RET kinase G810R it was 70.5 nM; against RET kinase M918T, 46.5 nM.

With `CC(C)n1nc(-c2cc(C(F)(F)F)nn2C2CCCCO2)c2c(N)ncnc21` (stereo not drawn) [Example 25, 1-isopropyl-3-(1-(tetrahydro-2H-pyran-2-yl)-3-(trifluoromethyl)-1H-pyrazol-5-yl)-1H-pyrazolo[3,4-d]pyrimidin-4-amine], the concentration for half-maximal inhibition (IC50) at RET kinase G810S turned out to be 79.8 nM; at RET kinase Wild Type, 8.4 nM; against RET kinase G810R, 48.6 nM; against RET kinase M918T, 16.3 nM.

For the molecule `CC(C)n1nc(-c2c[nH]nn2)c2c(N)ncnc21` [Example 35, 1-isopropyl-3-(1H-1,2,3-triazol-4-yl)-1H-pyrazolo[3,4-d]pyrimidin-4-amine], on RET kinase Wild Type, the midpoint of inhibition, the IC50, lay at 7.2 nM.
